Reference: patent publication US11414402B2, “Sulfonamide-substituted cyanopyrrolidines with activity as DUB inhibitors” (MISSION THERAPEUTICS LIMITED, priority 2017, dated 2022)

Molecular target: USP30 (Homo sapiens (Human), UniProt Q70CQ3)
Assay: USP30 biochemical IC50 assay (fluorescence polarisation)
Conditions: USP30 CD (57-517); 30 min preincubation at room temp; TAMRA-peptide-ubiquitin substrate 50 nM; read after 2-hour incubation; read-out: IC50 range
Protocol: A typical 8-point dilution series would be 100, 30, 10, 3, 1, 0.3, 0.1, 0.03 μM final. […] Either 1 μl of 50% DMSO or diluted compound was added to the plate. USP30 was diluted in reaction buffer (40 mM Tris, pH 7.5, 0.005% Tween 20, 0.5 mg/ml BSA, 5 mM beta-mercaptoethanol) to the equivalent of 0.05 μl/well and 10 μl of diluted USP30 was added to the compound. Enzyme and compound were incubated for 30 min at room temp. Reactions were initiated by the addition of 50 nM of TAMRA labelled peptide linked to ubiquitin via an iso-peptide bond as fluorescence polarisation substrate. Reactions were read immediately after addition of substrate and following a 2-hour incubation at room temperature. Readings were performed on a Pherastar Plus (BMG Labtech). λ Excitation 540 nm; λ Emission 590 nm.

Chain of USP30 (Q70CQ3 57-517): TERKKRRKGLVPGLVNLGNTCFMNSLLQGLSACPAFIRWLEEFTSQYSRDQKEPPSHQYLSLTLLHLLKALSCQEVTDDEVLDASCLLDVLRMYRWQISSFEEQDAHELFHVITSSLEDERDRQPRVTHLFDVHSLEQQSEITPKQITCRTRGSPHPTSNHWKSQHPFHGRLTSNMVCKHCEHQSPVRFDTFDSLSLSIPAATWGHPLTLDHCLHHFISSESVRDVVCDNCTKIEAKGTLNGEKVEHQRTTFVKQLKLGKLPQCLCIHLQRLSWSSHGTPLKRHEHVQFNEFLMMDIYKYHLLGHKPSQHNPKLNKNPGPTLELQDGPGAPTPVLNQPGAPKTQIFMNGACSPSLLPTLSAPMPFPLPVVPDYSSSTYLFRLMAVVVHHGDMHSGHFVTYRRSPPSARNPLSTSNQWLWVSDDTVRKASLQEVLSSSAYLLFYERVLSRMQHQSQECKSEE

In the case of `N#CN1CCC(S(=O)(=O)N2CC(c3ccc(Cl)cc3)C2)C1` (stereo not drawn) [Example 34, 3-((3-(4-chlorophenyl)azetidin-1-yl)sulfonyl)pyrrolidine-1-carbonitrile], the IC50 is reported as 0.1 to 1 µM.

Work on `Cc1ccc(F)cc1S(=O)(=O)NC1CCN(C#N)C1` (stereo not drawn) [Example 17, N-(1-cyanopyrrolidin-3-yl)-5-fluoro-2-methylbenzenesulfonamide] yielded an IC50 of 1 to 10 µM.

`N#CN1CCC(S(=O)(=O)N2CCN(c3ccc(F)cc3)CC2)C1` (stereo not drawn) [Example 27, 3-((4-(4-fluorophenyl)piperazin-1-yl)sulfonyl)pyrrolidine-1-carbonitrile] gave an IC50 of 10 to 100 µM.

`N#CN1CC[C@H](S(=O)(=O)N2CC(c3ccc(Cl)cc3)C2)C1` [Example 35, (S)-3-((3-(4-chlorophenyl)azetidin-1-yl)sulfonyl)pyrrolidine-1-carbonitrile] was tested, and the IC50 was 0.1 to 1 µM.

For `N#CN1C[C@H]2CCN(S(=O)(=O)c3ccc(-c4cccnc4)cc3)[C@H]2C1` [Example 21, (3aR,6aR)-1-((4-(pyridin-3-yl)phenyl)sulfonyl)hexahydropyrrolo[3,4-b]pyrrole-5(1H)-carbonitrile], the IC50 was 0.1 to 1 µM.

For `N#CN1CC[C@@H](NS(=O)(=O)c2ccccc2)C1` [Example 7, (R)-N-(1-cyanopyrrolidin-3-yl)benzenesulfonamide], the IC50 was 1 to 10 µM.

In the case of `N#CN1CCC(S(=O)(=O)N2CCC(c3ccc(Cl)cc3)CC2)C1` (stereo not drawn) [Example 30, 3-((4-(4-chlorophenyl)piperidin-1-yl)sulfonyl)pyrrolidine-1-carbonitrile], the IC50 is reported as under 0.1 µM.

With `N#CN1CCC(S(=O)(=O)N2CCC(Cc3ccccc3)CC2)C1` (stereo not drawn) [Example 33, 3-((4-benzylpiperidin-1-yl)sulfonyl)pyrrolidine-1-carbonitrile] the IC50 was 0.1 to 1 µM.

`N#CN1CCC(S(=O)(=O)N2CC(Oc3ccccc3)C2)C1` (stereo not drawn) [Example 37, 3-((3-phenoxyazetidin-1-yl)sulfonyl)pyrrolidine-1-carbonitrile] was tested, and the IC50 was 10 to 100 µM.

`CN1CCN(c2ccc(S(=O)(=O)NC3CCN(C#N)C3)cc2)CC1` (stereo not drawn) [Example 10, N-(1-cyanopyrrolidin-3-yl)-4-(4-methylpiperazin-1-yl)benzenesulfonamide] showed an IC50 of 1 to 10 µM.

`N#CN1CC[C@@H](S(=O)(=O)N2CC(c3ccc(Cl)cc3)C2)C1` [Example 36, (R)-3-((3-(4-chlorophenyl)azetidin-1-yl)sulfonyl)pyrrolidine-1-carbonitrile] gave an IC50 of 0.1 to 1 µM.

`N#CN1CCC(S(=O)(=O)N2CCN(c3ncccn3)CC2)C1` (stereo not drawn) [Example 29, 3-((4-(pyrimidin-2-yl)piperazin-1-yl)sulfonyl)pyrrolidine-1-carbonitrile] was tested, and the IC50 was 1 to 10 µM.

`Cc1ccc(S(=O)(=O)N2CCO[C@@H]3CN(C#N)C[C@H]32)cc1` (racemic) [Example 22, rac-(4aR,7aR)-4-tosylhexahydropyrrolo[3,4-b][1,4]oxazine-6(2H)-carbonitrile] was tested, and the IC50 was 10 to 100 µM.

With `Cc1ccc(CS(=O)(=O)N2CCO[C@H]3CN(C#N)C[C@H]32)cc1` (racemic) [Example 23, rac-(4aR,7aS)-4-(4-methylbenzyl)sulfonyl)hexahydropyrrolo[3,4-b][1,4]oxazine-6(2H)-carbonitrile] the IC50 was 0.1 to 1 µM.

For `N#CN1CCC(S(=O)(=O)N2CCN(c3ccccn3)CC2)C1` (stereo not drawn) [Example 28], the IC50 was 0.1 to 1 µM.
